# Where two headings read alike, the source gives them in different places.
# Legend:
# [1] = neat water, x1=0.000, cited from earlier work
# [2] = Apparent thermodynamic functions of dissolution; format: physicochemical; conditions: Thm=303.0 K
structure (smiles),measurement,setting,value
"Cc1cnc(NC(=O)C2=C(O)c3ccccc3S(=O)(=O)N2C)s1 [Meloxicam, 4-hydroxy-2-methyl-N-(5-methyl-2-thiazolyl)-2H-1,2-benzothiazine-3-carboxamide-1,1-dioxide]",Experimental molar solubility (C),[1]; T=293.15 K,6.027 × 10^–5 mol·dm^–3
same,Experimental mole fraction solubility (x3),[1]; T=293.15 K,1.088 × 10^–6 mole fraction
same,Experimental molar solubility (C),[1]; T=298.15 K,6.290 × 10^–5 mol·dm^–3
same,Experimental mole fraction solubility (x3),[1]; T=298.15 K,1.137 × 10^–6 mole fraction
same,Experimental molar solubility (C),[1]; T=303.15 K,6.557 × 10^–5 mol·dm^–3
same,Experimental mole fraction solubility (x3),[1]; T=303.15 K,1.187 × 10^–6 mole fraction
same,Experimental molar solubility (C),[1]; T=308.15 K,6.962 × 10^–5 mol·dm^–3
same,Experimental mole fraction solubility (x3),[1]; T=308.15 K,1.262 × 10^–6 mole fraction
same,Experimental mole fraction solubility (x3),[1]; T=313.15 K,1.329 × 10^–6 mole fraction
same,TΔsolnS°,"[2]; NMP+water, x1=0.100",0.52 kJ·mol^–1
same,ΔsolnG° (apparent Gibbs energy of dissolution),"[2]; NMP+water, x1=0.100",27.40 kJ·mol^–1
same,ΔsolnH° (apparent enthalpy of dissolution),"[2]; NMP+water, x1=0.100",27.92 kJ·mol^–1
same,ΔsolnS° (apparent entropy of dissolution),"[2]; NMP+water, x1=0.100",1.71 J·mol^–1·K^–1
same,TΔsolnS°,"[2]; NMP+water, x1=0.200",2.55 kJ·mol^–1
same,ΔsolnG° (apparent Gibbs energy of dissolution),"[2]; NMP+water, x1=0.200",22.34 kJ·mol^–1
same,ΔsolnH° (apparent enthalpy of dissolution),"[2]; NMP+water, x1=0.200",24.89 kJ·mol^–1
same,ΔsolnS° (apparent entropy of dissolution),"[2]; NMP+water, x1=0.200",8.41 J·mol^–1·K^–1
same,TΔsolnS°,"[2]; NMP+water, x1=0.300",3.08 kJ·mol^–1
same,ΔsolnG° (apparent Gibbs energy of dissolution),"[2]; NMP+water, x1=0.300",18.38 kJ·mol^–1
same,ΔsolnH° (apparent enthalpy of dissolution),"[2]; NMP+water, x1=0.300",21.46 kJ·mol^–1
same,ΔsolnS° (apparent entropy of dissolution),"[2]; NMP+water, x1=0.300",10.18 J·mol^–1·K^–1
same,TΔsolnS°,"[2]; NMP+water, x1=0.400",2.09 kJ·mol^–1
same,ΔsolnG° (apparent Gibbs energy of dissolution),"[2]; NMP+water, x1=0.400",15.31 kJ·mol^–1
same,ΔsolnH° (apparent enthalpy of dissolution),"[2]; NMP+water, x1=0.400",17.40 kJ·mol^–1
same,ΔsolnS° (apparent entropy of dissolution),"[2]; NMP+water, x1=0.400",6.89 J·mol^–1·K^–1
same,TΔsolnS°,"[2]; NMP+water, x1=0.500",1.77 kJ·mol^–1
same,ΔsolnG° (apparent Gibbs energy of dissolution),"[2]; NMP+water, x1=0.500",13.00 kJ·mol^–1
same,ΔsolnH° (apparent enthalpy of dissolution),"[2]; NMP+water, x1=0.500",14.78 kJ·mol^–1
same,ΔsolnS° (apparent entropy of dissolution),"[2]; NMP+water, x1=0.500",5.85 J·mol^–1·K^–1
same,TΔsolnS°,"[2]; NMP+water, x1=0.600",6.45 kJ·mol^–1
same,ΔsolnG° (apparent Gibbs energy of dissolution),"[2]; NMP+water, x1=0.600",11.42 kJ·mol^–1
same,ΔsolnH° (apparent enthalpy of dissolution),"[2]; NMP+water, x1=0.600",17.87 kJ·mol^–1
same,ΔsolnS° (apparent entropy of dissolution),"[2]; NMP+water, x1=0.600",21.28 J·mol^–1·K^–1
same,TΔsolnS°,"[2]; NMP+water, x1=0.700",15.75 kJ·mol^–1
same,ΔsolnG° (apparent Gibbs energy of dissolution),"[2]; NMP+water, x1=0.700",10.45 kJ·mol^–1
same,ΔsolnH° (apparent enthalpy of dissolution),"[2]; NMP+water, x1=0.700",26.20 kJ·mol^–1
same,ΔsolnS° (apparent entropy of dissolution),"[2]; NMP+water, x1=0.700",51.98 J·mol^–1·K^–1
same,TΔsolnS°,"[2]; NMP+water, x1=0.800",14.58 kJ·mol^–1
same,ΔsolnG° (apparent Gibbs energy of dissolution),"[2]; NMP+water, x1=0.800",9.52 kJ·mol^–1
same,ΔsolnH° (apparent enthalpy of dissolution),"[2]; NMP+water, x1=0.800",24.10 kJ·mol^–1
same,ΔsolnS° (apparent entropy of dissolution),"[2]; NMP+water, x1=0.800",48.13 J·mol^–1·K^–1
same,TΔsolnS°,"[2]; NMP+water, x1=0.900",10.89 kJ·mol^–1
same,ΔsolnG° (apparent Gibbs energy of dissolution),"[2]; NMP+water, x1=0.900",8.60 kJ·mol^–1
same,ΔsolnH° (apparent enthalpy of dissolution),"[2]; NMP+water, x1=0.900",19.49 kJ·mol^–1
same,ΔsolnS° (apparent entropy of dissolution),"[2]; NMP+water, x1=0.900",35.93 J·mol^–1·K^–1
same,TΔsolnS°,"[2]; neat NMP, x1=1.000",13.06 kJ·mol^–1
same,ΔsolnG° (apparent Gibbs energy of dissolution),"[2]; neat NMP, x1=1.000",7.99 kJ·mol^–1
same,ΔsolnH° (apparent enthalpy of dissolution),"[2]; neat NMP, x1=1.000",21.05 kJ·mol^–1
same,ΔsolnS° (apparent entropy of dissolution),"[2]; neat NMP, x1=1.000",43.10 J·mol^–1·K^–1

# From PMC9609070 (ACS Omega, 2022)
